# Reference: patent publication US11986493B2 (University of Pittsburgh—Of the Commonwealth System of …, priority 2013, dated 2024)
# “Also recorded” adds a separate entry of the source.
# Test system: subjects with pulmonary hypertension (WHO group I PAH, WHO group III PH)
# Test: Right heart catheterization: right heart/pulmonary artery hemodynamics, thermodilution cardiac output, PVR and SVR after inhaled NO and nebulized nitrite
# Type: in vivo, human
# Procedure: A total of 6 subjects with a confirmed diagnosis of pulmonary hypertension and meeting all inclusion/exclusion criteria were enrolled in the study which entailed a single right heart catheterization. The study population consisted of subjects with WHO group I PAH (n=3) and subjects with WHO group III PH (n=3) which received the dose escalation paradigm:
# During the study right heart/pulmonary artery hemodynamics were measured as well as noninvasive systemic blood pressure monitoring and simultaneous RV echocardiography. Subjects were tested for the changes in pulmonary vascular resistance (PVR) measured by right heart catheterization and using thermodilution cardiac output measurement at time zero, at times 15, 30 and 45 minutes after completion of each nebulization dose.
# Following right heart catheterization, the patient was stabilized for 20 minutes. Baseline blood collections and hemodynamic measurements were performed, followed by treatment with 40 ppm inhaled NO gas for […] with repeat hemodynamic measurements performed.
# After stopping inhaled NO gas, a single dose of sildenafil was given if patients were on background sildenafil therapy at previously prescribed doses. 45-minutes after sildenafil dose baseline hemodynamics were performed.
# Subjects were monitored carefully during and after the study treatment.
# The study was conducted at the 3rd FL Catheterization Laboratory at Presbyterian Hospital of the University of Pittsburgh Medical Center (UPMC). Baseline vasoreactivity was recorded after Inhaled NO at 40 ppm for […]. […] Subjects were instructed to breathe as calmly, and deeply as possible until no more mist was formed in the nebulizer chamber. Subjects were also instructed to hold their breath for approximately 10 seconds after inhalation to allow the study drug to reach deep into the lungs.
# [1] = Patient 5, nitrite 45 mg inhaled, 60 min
# [2] = Patient 5, nitrite 90 mg inhaled, 15 min
# [3] = Patient 5, nitrite 90 mg inhaled, 30 min
# [4] = Patient 5, nitrite 90 mg inhaled, 45 min
# [5] = Patient 5, nitrite 90 mg inhaled, 60 min
smiles,measurement,setting,value
"O=NO [nitrite, sodium nitrite]",PCWP,[1],7
same,PVR,[1],6.50
same,PVR/SVR,[1],0.49
same,RA,[1],3
same,RVD,[1],1
same,RVS,[1],76
same,SVR,[1],13.16
same,TPR,[1],8.07
same,mPAP,[1],36.01
same,CI,[2],2.77
same,CO,[2],4.91
same,PAD,[2],16
same,PAS,[2],76
same,PCWP,[2],2
same,PVR,[2],6.93
same,PVR/SVR,[2],0.50
same,RA,[2],1
same,SVR,[2],13.778
same,TPR,[2],7.33
same,mPAP,[2],36.01
same,CI,[3],2.81
same,CO,[3],4.97
same,PAD,[3],16
same,PAS,[3],69
same,PCWP,[3],3
same,PVR,[3],6.17
same,PVR/SVR,[3],0.47
same,RA,[3],1
same,SVR,[3],13.21
same,TPR,[3],6.78
same,mPAP,[3],33.67
same,CI,[4],2.86
same,CO,[4],5.07
same,PAD,[4],13
same,PAS,[4],70
same,PCWP,[4],3
same,PVR,[4],5.72
same,PVR/SVR,[4],0.47
same,RA,[4],1
same,SVR,[4],12.16
same,TPR,[4],6.31
same,mPAP,[4],32.01
same,CI,[5],3.24
same,CO,[5],5.73
same,PAD,[5],14
same,PAS,[5],74
same,PCWP,[5],3
same,PVR,[5],5.41
same,PVR/SVR,[5],0.44
same,RA,[5],1
same,SVR,[5],12.33
same,TPR,[5],5.93
same,mPAP,[5],34.01
same,CI,"Patient 6, nitrite 45, 15 min",2.9849
same,CO,"Patient 6, nitrite 45, 15 min",5.94
same,PAD,"Patient 6, nitrite 45, 15 min",22
same,PAS,"Patient 6, nitrite 45, 15 min",51
same,PCWP,"Patient 6, nitrite 45, 15 min",12
same,PVR,"Patient 6, nitrite 45, 15 min",3.3116
same,PVR/SVR,"Patient 6, nitrite 45, 15 min",0.2878
same,RA,"Patient 6, nitrite 45, 15 min",7
same,SVR,"Patient 6, nitrite 45, 15 min",11.505
same,TPR,"Patient 6, nitrite 45, 15 min",5.3318
same,mPAP,"Patient 6, nitrite 45, 15 min",31.671
same,CI,"Patient 6, nitrite 45, 30 min",2.8769
same,CO,"Patient 6, nitrite 45, 30 min",47.25
same,PAD,"Patient 6, nitrite 45, 30 min",20
same,PAS,"Patient 6, nitrite 45, 30 min",48
same,PCWP,"Patient 6, nitrite 45, 30 min",10
same,PVR,"Patient 6, nitrite 45, 30 min",3.3777
same,PVR/SVR,"Patient 6, nitrite 45, 30 min",0.2427
same,RA,"Patient 6, nitrite 45, 30 min",6
same,SVR,"Patient 6, nitrite 45, 30 min",13.917
same,TPR,"Patient 6, nitrite 45, 30 min",5.1244
same,mPAP,"Patient 6, nitrite 45, 30 min",29.337
same,CI,"Patient 6, nitrite 45, 45 min",3.0704
same,CO,"Patient 6, nitrite 45, 45 min",6.11
same,PAD,"Patient 6, nitrite 45, 45 min",23
same,PAS,"Patient 6, nitrite 45, 45 min",52
same,PCWP,"Patient 6, nitrite 45, 45 min",9
same,PVR,"Patient 6, nitrite 45, 45 min",3.8741
same,PVR/SVR,"Patient 6, nitrite 45, 45 min",0.2958
same,RA,"Patient 6, nitrite 45, 45 min",6
same,SVR,"Patient 6, nitrite 45, 45 min",13.095
same,TPR,"Patient 6, nitrite 45, 45 min",5.3471
same,mPAP,"Patient 6, nitrite 45, 45 min",32.671
same,CI,"Patient 6, nitrite 45, 60 min",2.9196
same,CO,"Patient 6, nitrite 45, 60 min",5.81
same,PAD,"Patient 6, nitrite 45, 60 min",28
same,PAS,"Patient 6, nitrite 45, 60 min",50
same,PCWP,"Patient 6, nitrite 45, 60 min",8
same,PVR,"Patient 6, nitrite 45, 60 min",4.7053
same,PVR/SVR,"Patient 6, nitrite 45, 60 min",0.3417
same,RA,"Patient 6, nitrite 45, 60 min",6
same,SVR,"Patient 6, nitrite 45, 60 min",13.771
same,TPR,"Patient 6, nitrite 45, 60 min",6.0822
same,mPAP,"Patient 6, nitrite 45, 60 min",35.338
same,CI,"Patient 6, nitrite 90, 15 min",3.3568
same,CO,"Patient 6, nitrite 90, 15 min",6.68
same,PAD,"Patient 6, nitrite 90, 15 min",24
same,PAS,"Patient 6, nitrite 90, 15 min",52
same,PCWP,"Patient 6, nitrite 90, 15 min",9
same,PVR,"Patient 6, nitrite 90, 15 min",3.6434
same,PVR/SVR,"Patient 6, nitrite 90, 15 min",0.3444
same,RA,"Patient 6, nitrite 90, 15 min",6
same,SVR,"Patient 6, nitrite 90, 15 min",10.58
same,TPR,"Patient 6, nitrite 90, 15 min",4.9907
same,mPAP,"Patient 6, nitrite 90, 15 min",33.338
same,CI,"Patient 6, nitrite 90, 30 min",3.6683
same,CO,"Patient 6, nitrite 90, 30 min",7.3
same,PAD,"Patient 6, nitrite 90, 30 min",20
same,PAS,"Patient 6, nitrite 90, 30 min",48
same,PCWP,"Patient 6, nitrite 90, 30 min",6
same,PVR,"Patient 6, nitrite 90, 30 min",3.1969
same,PVR/SVR,"Patient 6, nitrite 90, 30 min",0.3125
same,RA,"Patient 6, nitrite 90, 30 min",6
same,SVR,"Patient 6, nitrite 90, 30 min",10.23
same,TPR,"Patient 6, nitrite 90, 30 min",4.0188
same,mPAP,"Patient 6, nitrite 90, 30 min",29.337
same,CI,"Patient 6, nitrite 90, 45 min",3.7085
same,CO,"Patient 6, nitrite 90, 45 min",7.38
same,PAD,"Patient 6, nitrite 90, 45 min",24
same,PAS,"Patient 6, nitrite 90, 45 min",52
same,PCWP,"Patient 6, nitrite 90, 45 min",4
same,PVR,"Patient 6, nitrite 90, 45 min",3.9753
same,PVR/SVR,"Patient 6, nitrite 90, 45 min",0.4074
same,RA,"Patient 6, nitrite 90, 45 min",6
same,SVR,"Patient 6, nitrite 90, 45 min",9.7574
same,TPR,"Patient 6, nitrite 90, 45 min",4.5173
same,mPAP,"Patient 6, nitrite 90, 45 min",33.338
same,CI,"Patient 6, nitrite 90, 60 min",4.3417
same,CO,"Patient 6, nitrite 90, 60 min",8.64
same,PAD,"Patient 6, nitrite 90, 60 min",28
same,PAS,"Patient 6, nitrite 90, 60 min",55
same,PCWP,"Patient 6, nitrite 90, 60 min",4
same,PVR,"Patient 6, nitrite 90, 60 min",3.82
same,PVR/SVR,"Patient 6, nitrite 90, 60 min",0.4877
same,RA,"Patient 6, nitrite 90, 60 min",8
same,RVD,"Patient 6, nitrite 90, 60 min",8
same,RVS,"Patient 6, nitrite 90, 60 min",47
same,SVR,"Patient 6, nitrite 90, 60 min",7.8329
same,TPR,"Patient 6, nitrite 90, 60 min",4.2829
same,mPAP,"Patient 6, nitrite 90, 60 min",37.005
same,RA pressure (right atrial pressure),"patients with PAH (WHO Group 1 and Group 3; n=6), inhaled doses of 45 mg and 90 mg",dose-dependent reduction
same,PCWP (pulmonary capillary wedge pressure),"patients with PAH (WHO Group 1 and Group 3; n=6), inhaled doses of 45 mg and 90 mg, listed as inhaled nitrite",lowers; also recorded: dose-dependent reduction
same,response of patients non-responsive to inhaled NO,some patients of the study,responsive
